These results are taken from patent US7442703B2, “Piperidine derivatives useful as CCR5 antagonists” (priority 2001, dated 2008).

Like-named read-outs stand apart in the source and are kept apart here.

For the assay, the system named is HIV-1 luciferase reporter virus in U87-CD4-CCR5 cells. Put plainly: HIV Replication (luciferase) assay. It is filed as cell-based. As to the method:
Luciferase Replication Assay:
Plasmids encoding the full length genome of HIV-1 pNL-4-Luc with the gp120 V-3 loop replaced by the Bgl II fragment of HIV-1 ADA, YU-2 or HxB (ADA-Luc-FL, YU-2-Luc-FL and HxB-Luc-FL) are obtained from Dr. Susan Pontow (Washington University, St. Louis Mo.). Replication-competent luciferase reporter virus stocks are generated by transfection of plasmids into 293T cells using Superfect (Qiagen) or Mirus transfection reagents. Viral stocks are collected 48 hours following transfection and titered for luciferase production on U-87-CCR5 or CXCR4 cells. U87-CD4-CCR5 cells (10^4/well) are plated in 96-well cell culture plates and incubated overnight. Media is removed and replaced with 50 μl of fresh culture media (DMEM, 10% FCS) and 50 μl of compound diluted in culture medium. Cells are incubated with compound at 37° C. for 1 hour. The resultant supernatant is removed and replaced with 20 μl of media containing compound and infected with an equal volume of diluted or undiluted virus stock at 37° C. for 3-4 hours. The cells are washed once with DMEM, and 200 μl of media containing compound is added. The cultures are incubated for 3 days, the cells lysed in luciferase lysis buffer (Promega, Madison, Wis.) and transferred to Immulon plates (Dynex Technologies, Chantilly Va.). An equal volume of luciferase substrate (Promega, Madison Wis.) is added to lysates and the plates read immediately in a Wallac Luminometer. Fifty and ninety percent inhibitory concentrations are determined using GraphPad PRISM software.

Where [1] appears, read: Human immunodeficiency virus 1, U87/CD4/CCR5, read-out: HIV Replication (luciferase) IC50.
The mark [2] stands for this setting: Human immunodeficiency virus 1, U87/CD4/CCR5.

As a reminder, the IC50 is the midpoint of a concentration-inhibition curve. With `CC(=O)NCCc1ccc(N(Cc2ccccc2)C2CCN(C3(C)CCN(C(=O)c4c(C)ncnc4C)CC3)CC2)cc1` [Compound 49], under setting [1], the IC50 was 0.4 nM.
On the same count and under the same terms, as for `Cc1ncnc(C)c1C(=O)N1CCC(C)(N2CCC(N(c3ccccc3)c3cccc(Br)c3)CC2)CC1` [Compound 87], the figure is 0.1 nM.
In the case of `Cc1ncnc(C)c1C(=O)N1CCC(C)(N2CCC(N(Cc3ccccc3)c3ccc(Br)c(C(F)(F)F)c3)CC2)CC1` [Compound 38], the IC50 under setting [1] came out at 3 nM.
Still for that read-out and setting: as for `COc1ccc(N(Cc2ccccc2)C2CCN(C3(C)CCN(C(=O)c4c(C)ncnc4C)CC3)CC2)cc1` [Compound 37], the figure is 0.1 nM; as for `C=CCOC(=O)c1ccc(N(Cc2ccccc2)C2CCN(C3(C)CCN(C(=O)c4c(C)ncnc4C)CC3)CC2)cc1` [Compound 58], 2 nM; as for `Cc1ncnc(C)c1C(=O)N1CCC(C)(N2CCC(N(Cc3ccccc3)C3CCN(S(=O)(=O)c4ccc(Cl)cc4)CC3)CC2)CC1` [Compound 6], 0.9 nM.
Still for that read-out and setting: the result for `Cc1ncnc(C)c1C(=O)N1CCC(C)(N2CCC(N(Cc3ccccc3)c3cccc(C(=O)NCc4ccccc4)c3)CC2)CC1` [Compound 66] reads 1 nM.
Under setting [2], `Cc1ncnc(C)c1C(=O)N1CCC(C)(N2CCC(N(Cc3ccccc3)c3ccncc3)CC2)CC1` [Compound 108] returned an IC50 of 0.8 nM.
Turning to `CCN(CC)C(=O)c1cccc(N(Cc2ccccc2)C2CCN(C3(C)CCN(C(=O)c4c(C)ncnc4C)CC3)CC2)c1` [Compound 63], the IC50 under setting [1] worked out at 6 nM.
Still for that read-out and setting: as for `Cc1ncnc(C)c1C(=O)N1CCC(C)(N2CCC(N(c3ccccc3)c3cccc(F)c3)CC2)CC1` [Compound 93], the figure is 0.21 nM.
Still for that read-out and setting: as for `Cc1ncnc(C)c1C(=O)N1CCC(C)(N2CCC(N(CC3CCCCC3)c3ccccc3)CC2)CC1` [Compound 106], the figure is 1 nM; as for `Cc1ncnc(C)c1C(=O)N1CCC(C)(N2CCC(N(Cc3ccncc3)c3ccc(Br)cc3)CC2)CC1` [Compound 88], 5 nM; as for `Cc1ncnc(C)c1C(=O)N1CCC(C)(N2CCC(N(c3ccccc3)c3ccc(Cl)cc3)CC2)CC1` [Compound 73], 0.3 nM.
Turning to `Cc1ncnc(C)c1C(=O)N1CCC(C)(N2CCC(N(Cc3ccccc3)c3cccc(OC(F)(F)F)c3)CC2)CC1` [Compound 24], under setting [1], the IC50 came out at 0.2 nM.
Still for that read-out and setting: as for `COCCN(c1ccc(Br)cc1)C1CCN(C2(C)CCN(C(=O)c3c(C)ncnc3C)CC2)CC1` [Compound 103], the figure is 2 nM; as for `Cc1ncnc(C)c1C(=O)N1CCC(C)(N2CCC(N(Cc3ccccc3)C3CCN(S(=O)(=O)C4CC4)CC3)CC2)CC1` [Compound 7], 3 nM.
Regarding `Cc1ncnc(C)c1C(=O)N1CCC(C)(N2CCC(N(Cc3cccnc3)c3ccc(Br)cc3)CC2)CC1` [Compound 97], the IC50 under setting [1] is 0.3 nM.
Turning to `Cc1ncnc(C)c1C(=O)N1CCC(C)(N2CCC(N(Cc3ccccc3)c3ccc(N4CCOCC4)cc3)CC2)CC1` [Compound 45], the IC50 under setting [1] was 0.9 nM.
Same read-out and setting: the result for `C=CCOC(=O)NCCc1ccc(N(Cc2ccccc2)C2CCN(C3(C)CCN(C(=O)c4c(C)ncnc4C)CC3)CC2)cc1` [Compound 54] reads 0.6 nM; that for `Cc1ncnc(C)c1C(=O)N1CCC(C)(N2CCC(N(Cc3ccccc3)c3cccc(C(=O)NC4CC4)c3)CC2)CC1` [Compound 68], 2 nM; that for `Cc1cc(-c2cc[n+]([O-])cc2)cc(C)c1C(=O)N1CCC(C)(N2CCC(N(c3ccccc3)c3ccc(OC(F)(F)F)cc3)CC2)CC1` [Compound 81], 3 nM.
On to `Cc1ncnc(C)c1C(=O)N1CCC(C)(N2CCC(N(c3ccccc3)c3ccc(C(F)(F)F)cn3)CC2)CC1` [Compound 76], for which, under setting [1], the IC50 amounted to 0.2 nM.
The same measure, in the same setting: as for `Cc1ncnc(C)c1C(=O)N1CCC(C)(N2CCC(N(Cc3ccccc3)c3ccn(Cc4ccccc4)n3)CC2)CC1` [Compound 46], the figure is 2 nM; as for `Cc1ncnc(C)c1C(=O)N1CCC(C)(N2CCC(N(c3ccccc3)c3ccccc3)CC2)CC1` [Compound 72], 0.3 nM; as for `Cc1cc(N(Cc2ccccc2)C2CCN(C3(C)CCN(C(=O)c4c(C)ncnc4C)CC3)CC2)ccc1Br` [Compound 28], 0.22 nM.
On the same count and under the same terms, as for `Cc1ncnc(C)c1C(=O)N1CCC(C)(N2CCC(N(Cc3ccccc3)c3ccc(CCNS(=O)(=O)C4CC4)cc3)CC2)CC1` [Compound 56], the figure is 0.2 nM.
Still for that read-out and setting: as for `COc1cccc(N(c2ccccc2)C2CCN(C3(C)CCN(C(=O)c4c(C)ncnc4C)CC3)CC2)c1` [Compound 94], the figure is 1 nM.
On to `Cc1ncnc(C)c1C(=O)N1CCC(C)(N2CCC(N(Cc3ccccc3)c3ccc(I)cc3)CC2)CC1` [Compound 23], for which the IC50 under setting [1] was determined as 0.1 nM.
The same measure, in the same setting: the result for `Cc1cc(-c2cc[n+]([O-])cc2)cc(C)c1C(=O)N1CCC(C)(N2CCC(N(Cc3ccccn3)c3ccccc3)CC2)CC1` [Compound 84] reads 10 nM; that for `Cc1ncnc(C)c1C(=O)N1CCC(C)(N2CCC(N(Cc3ccccc3)c3cc(Cl)cc(Cl)c3)CC2)CC1` [Compound 32], 1.7 nM.
The same measure, in the same setting: as for `Cc1ncnc(C)c1C(=O)N1CCC(C)(N2CCC(N(Cc3ccccc3)c3ccc(OC(F)(F)F)cc3)CC2)CC1` [Compound 11], the figure is 0.2 nM; as for `Cc1ncnc(C)c1C(=O)N1CCC(C)(N2CCC(N(c3ccccc3)c3ccc(Cl)cn3)CC2)CC1` [Compound 78], 1 nM.
`Cc1ncnc(C)c1C(=O)N1CCC(C)(N2CCC(N(Cc3ccccc3)c3ccc(F)cc3)CC2)CC1` [Compound 14]: under setting [1], the concentration for half-maximal inhibition (IC50) was 0.1 nM.
On to `Cc1ncnc(C)c1C(=O)N1CCC(C)(N2CCC(N(Cc3ccccc3)c3ccc(Cl)c(Cl)c3)CC2)CC1` [Compound 26], for which the half-maximal inhibitory concentration (IC50) under setting [1] is 0.3 nM.
Still for that read-out and setting: as for `Cc1ncnc(C)c1C(=O)N1CCC(C)(N2CCC(N(Cc3ccccc3)c3cccc(C(N)=O)c3)CC2)CC1` [Compound 61], the figure is 0.5 nM.
Still for that read-out and setting: as for `Cc1ncnc(C)c1C(=O)N1CCC(C)(N2CCC(N(Cc3ccccc3)c3cccc(Cl)c3)CC2)CC1` [Compound 18], the figure is 0.1 nM; as for `Cc1ncnc(C)c1C(=O)N1CCC(C)(N2CCC(N(Cc3ccccc3)c3ccccc3)CC2)CC1` [Compound 9], 3 nM.
`Cc1ncnc(C)c1C(=O)N1CCC(C)(N2CCC(N(c3ccccc3)c3ccc(C(F)(F)F)nc3)CC2)CC1` [Compound 69]: the IC50 under setting [2] is 0.11 nM.
With `Cc1ncnc(C)c1C(=O)N1CCC(C)(N2CCC(N(Cc3ccccc3)C3CCN(S(C)(=O)=O)CC3)CC2)CC1` [Compound 2], the IC50 under setting [1] was found to be 0.8 nM.
Same read-out and setting: as for `Cc1ncnc(C)c1C(=O)N1CCC(C)(N2CCC(N(Cc3ccccc3)c3ccc(Br)c4cccnc34)CC2)CC1` [Compound 52], the figure is 1 nM; as for `Cc1ncnc(C)c1C(=O)N1CCC(C)(N2CCC(N(c3ccccc3)c3ccc(Br)c(C(F)(F)F)c3)CC2)CC1` [Compound 95], 2 nM.
With `Cc1ncnc(C)c1C(=O)N1CCC(C)(N2CCC(N(CC3CC3)c3ccccc3)CC2)CC1` [Compound 74], the IC50 under setting [1] turned out to be 10 nM.
Take `Cc1ncnc(C)c1C(=O)N1CCC(C)(N2CCC(N(Cc3ccccc3)c3cccc(C(=O)NCCO)c3)CC2)CC1` [Compound 67]: the IC50 under setting [1] worked out at 6 nM.
Same read-out and setting: as for `Cc1ncnc(C)c1C(=O)N1CCC(C)(N2CCC(N(Cc3ccccc3)c3ccc(F)c(Cl)c3)CC2)CC1` [Compound 27], the figure is 0.1 nM.
On to `CCc1ccc(N(c2ccccc2)C2CCN(C3(C)CCN(C(=O)c4c(C)ncnc4C)CC3)CC2)cc1` [Compound 100], for which the IC50 under setting [1] worked out at 0.1 nM.
With `Cc1cc(N(c2ccccc2)C2CCN(C3(C)CCN(C(=O)c4c(C)ncnc4C)CC3)CC2)ccc1Br` [Compound 30], the IC50 under setting [1] amounted to 0.26 nM.
`COc1cccc(N(Cc2ccccc2)C2CCN(C3(C)CCN(C(=O)c4c(C)ncnc4C)CC3)CC2)c1` [Compound 33]: under setting [1], the IC50 amounted to 0.53 nM.
Turning to `Cc1ncnc(C)c1C(=O)N1CCC(C)(N2CCC(N(c3ccccc3)c3cc(F)cc(F)c3)CC2)CC1` [Compound 101], the IC50 under setting [1] was found to be 0.1 nM.
On the same count and under the same terms, as for `Cc1ncnc(C)c1C(=O)N1CCC(C)(N2CCC(N(Cc3ccccc3)c3cc(F)cc(F)c3)CC2)CC1` [Compound 36], the figure is 0.1 nM.
Still for that read-out and setting: as for `Cc1ncnc(C)c1C(=O)N1CCC(C)(N2CCC(N(c3ccccc3)c3ccccn3)CC2)CC1` [Compound 77], the figure is 7 nM.
Still for that read-out and setting: as for `Cc1ncnc(C)c1C(=O)N1CCC(C)(N2CCC(N(c3ccccc3)c3ccc(OC(F)(F)F)cc3)CC2)CC1` [Compound 70], the figure is 1 nM.
On to `Cc1cc(-c2cc[n+]([O-])cc2)cc(C)c1C(=O)N1CCC(C)(N2CCC(N(c3ccccc3)c3ccc(C(F)(F)F)nc3)CC2)CC1` [Compound 82], for which the IC50 under setting [1] came out at 0.1 nM.
Same read-out and setting: the result for `Cc1ncnc(C)c1C(=O)N1CCC(C)(N2CCC(N(Cc3ccccc3)c3ccc(C(C)C)cc3)CC2)CC1` [Compound 22] reads 0.2 nM; that for `Cc1ncnc(C)c1C(=O)N1CCC(C)(N2CCC(N(Cc3ccccc3)c3cccc(F)c3)CC2)CC1` [Compound 31], 0.44 nM.
As to `Cc1ncnc(C)c1C(=O)N1CCC(C)(N2CCC(N(Cc3ccccc3)c3ccc(Cl)c(C(F)(F)F)c3)CC2)CC1` [Compound 35], under setting [1], the IC50 is 2 nM.
Still for that read-out and setting: the result for `Cc1ncnc(C)c1C(=O)N1CCC(C)(N2CCC(N(CCc3ccccc3)c3ccccc3)CC2)CC1` [Compound 75] reads 38 nM.
